How the values were obtained:
Src [1] = biological target: T1, Src (Homo sapiens, UniProt P12931); experiment: biochemical
Target sequence in this assay (P12931 254-535 limits assumed): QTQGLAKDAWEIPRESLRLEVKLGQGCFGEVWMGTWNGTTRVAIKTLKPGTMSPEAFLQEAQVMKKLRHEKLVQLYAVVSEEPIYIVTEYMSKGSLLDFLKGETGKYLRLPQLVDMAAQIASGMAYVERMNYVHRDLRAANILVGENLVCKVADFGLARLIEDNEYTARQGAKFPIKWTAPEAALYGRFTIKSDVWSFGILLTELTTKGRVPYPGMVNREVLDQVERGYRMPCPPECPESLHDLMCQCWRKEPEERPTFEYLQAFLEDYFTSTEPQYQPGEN

Hck [2] = biological target: T2, Hck (Homo sapiens, UniProt P08631); experiment: biochemical; type: biochemical
Target sequence in this assay (P08631 262-515 limits assumed): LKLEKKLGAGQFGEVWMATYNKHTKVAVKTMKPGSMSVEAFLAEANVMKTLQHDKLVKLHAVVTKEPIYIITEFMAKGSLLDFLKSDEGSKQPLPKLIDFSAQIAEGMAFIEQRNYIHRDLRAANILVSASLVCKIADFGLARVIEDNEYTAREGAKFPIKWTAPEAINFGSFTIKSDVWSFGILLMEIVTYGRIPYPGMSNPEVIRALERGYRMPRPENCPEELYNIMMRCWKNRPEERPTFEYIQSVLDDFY

pY-Hck = pY-Hck (Homo sapiens, UniProt P08631); experiment: Coupled kinase assay, phosphorylated Hck; type: biochemical; conditions: 5 μM of 4
pY-Src = pY-Src (Homo sapiens, UniProt P12931); experiment: Coupled kinase assay, phosphorylated Src; type: biochemical; conditions: 5 μM of 4
Sequence of pY-Src (P12931 254-535): as the sequence (P12931 254-535 limits assumed) above

Abl Y253F [3] = biological target: T3, Abl Y253F (Homo sapiens, UniProt P00519, Y253F); experiment: Kinase activity of Abl Y253F mutant; type: biochemical; conditions: 10 μM
T3 sequence (P00519 229-512 Y253F limits assumed): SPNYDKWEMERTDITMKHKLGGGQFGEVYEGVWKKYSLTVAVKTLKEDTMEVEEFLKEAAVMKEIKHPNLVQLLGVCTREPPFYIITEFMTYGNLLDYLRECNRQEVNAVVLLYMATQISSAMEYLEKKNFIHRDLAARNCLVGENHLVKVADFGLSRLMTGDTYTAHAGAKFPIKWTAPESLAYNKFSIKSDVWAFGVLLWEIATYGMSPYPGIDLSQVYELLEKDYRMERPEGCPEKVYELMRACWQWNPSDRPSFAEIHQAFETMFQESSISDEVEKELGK

Hck [4] = biological target: T2, Hck; experiment: biochemical; type: binding
Target sequence in this assay (P08631 247-526 limits assumed): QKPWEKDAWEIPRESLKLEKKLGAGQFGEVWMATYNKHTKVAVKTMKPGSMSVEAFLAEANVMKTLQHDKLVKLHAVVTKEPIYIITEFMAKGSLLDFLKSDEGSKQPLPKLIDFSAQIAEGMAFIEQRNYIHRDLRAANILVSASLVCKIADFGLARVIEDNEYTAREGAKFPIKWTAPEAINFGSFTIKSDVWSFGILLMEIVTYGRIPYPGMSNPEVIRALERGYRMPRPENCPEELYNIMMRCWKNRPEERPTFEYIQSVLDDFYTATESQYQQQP

Abl Y253F [5] = biological target: T3, Abl Y253F; experiment: Stop-flow tryptophan fluorescence binding kinetics, Abl Y253F
DYRK2 [6] = biological target: T4, DYRK2 (Homo sapiens, UniProt Q92630); experiment: Stop-flow tryptophan fluorescence binding kinetics, DYRK2; conditions: tryptophan fluorescence transient
T4 sequence (Q92630 146-540): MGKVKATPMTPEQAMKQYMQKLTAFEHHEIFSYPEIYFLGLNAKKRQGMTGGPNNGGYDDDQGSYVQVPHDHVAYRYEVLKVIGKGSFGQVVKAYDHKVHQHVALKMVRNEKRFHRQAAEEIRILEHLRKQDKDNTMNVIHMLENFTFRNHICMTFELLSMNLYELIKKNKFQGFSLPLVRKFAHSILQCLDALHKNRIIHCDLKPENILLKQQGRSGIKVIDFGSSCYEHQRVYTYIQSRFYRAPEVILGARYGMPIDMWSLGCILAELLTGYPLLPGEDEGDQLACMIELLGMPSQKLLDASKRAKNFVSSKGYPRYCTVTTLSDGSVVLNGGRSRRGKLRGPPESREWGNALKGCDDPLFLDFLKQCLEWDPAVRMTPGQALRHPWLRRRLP

Hck [7] = biological target: T2, Hck; type: biochemical
Target sequence in this assay (P08631 247-526 limits assumed): as the sequence (P08631 247-526 limits assumed) above

Src [8] = biological target: T1, Src; type: biochemical
Target sequence in this assay (P12931 254-535 limits assumed): as the sequence (P12931 254-535 limits assumed) above

MDA-MB-231 = experiment: Cytotoxicity by MTT assay, MDA-MB-231; type: cell-based; conditions: for IC50: Homo sapiens, MDA-MB-231, read-out: IC50 dose; for IC10 dose: MDA-MB-231, value used as dose in wound-healing assay
HEK 293T = experiment: Cytotoxicity by MTT assay, HEK 293T; type: cell-based; conditions: Homo sapiens, 48 h, read-out: IC50 value HEK 293T
MDA-MB-231 cells [9] = experiment: Stability of the compound in cells by live-cell fluorescence imaging; type: in vitro ADME; conditions: MDA-MB-231, 10 μM
Solution stability = type: physicochemical
[10] = Aggregation by dynamic light scattering; type: physicochemical; conditions: 15 μM in aqueous assay buffer
Src kinase domain = Src kinase domain (Homo sapiens, UniProt P12931)
Sequence of Src kinase domain (P12931 254-535 limits assumed): as above

MDA-MB-231 cells [11] = experiment: Plasma membrane integrity, FM4-64-FX live-cell imaging; type: cell-based; conditions: 15 μM, 6 h
MDA-MB-231 cells [12] = experiment: Wound-healing assay; type: cell-based; conditions: IC10 and IC50 dose
ERK1/2 = ERK1/2 nuclear translocation, immunofluorescence; type: cell-based; conditions: MDA-MB-231, 5 μM of 4
[13] = system: Bcl-2, Cytochrome C, caspase 3, Bid; experiment: Western blot analysis of apoptosis markers; type: cell-based; conditions: MDA-MB-231, 10 and 20 μM, 12 h
RAW 264.7 cells = experiment: Intracellular calcium detection; type: cell-based, murine; conditions: RAW 264.7, 5 μM of 4
STAT3 = STAT3 nuclear translocation, immunofluorescence; type: cell-based, murine; conditions: RAW 264.7, 5 μM of 4
Src, ERK1/2, and STAT3 = experiment: Phosphorylation of Src, ERK1/2 and STAT3 in macrophages, immunoprecipitation; type: cell-based, murine; conditions: RAW 264.7, LPS activated
Src [14] = biological target: T1, Src; conditions: MDA-MB-231
Target sequence in this assay (P12931 whole entry): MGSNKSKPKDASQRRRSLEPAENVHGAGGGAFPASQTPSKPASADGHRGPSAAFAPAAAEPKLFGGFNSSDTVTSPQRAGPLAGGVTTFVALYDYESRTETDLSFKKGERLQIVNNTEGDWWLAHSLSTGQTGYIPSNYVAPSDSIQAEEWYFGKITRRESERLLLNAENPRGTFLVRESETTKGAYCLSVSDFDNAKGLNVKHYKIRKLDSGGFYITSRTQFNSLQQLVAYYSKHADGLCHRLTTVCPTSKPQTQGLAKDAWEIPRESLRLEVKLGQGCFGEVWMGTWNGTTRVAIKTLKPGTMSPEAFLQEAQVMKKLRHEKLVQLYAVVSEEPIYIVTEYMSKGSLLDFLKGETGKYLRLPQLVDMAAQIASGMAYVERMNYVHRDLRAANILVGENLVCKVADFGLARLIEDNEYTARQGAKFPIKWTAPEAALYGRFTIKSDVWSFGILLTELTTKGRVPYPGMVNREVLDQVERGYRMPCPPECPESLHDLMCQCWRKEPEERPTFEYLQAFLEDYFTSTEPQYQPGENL

pUC19 plasmid DNA = experiment: DNA cross-linking assay; conditions: 0.1–20 μM, 37 °C, 2 h
DYRK2 [15] = biological target: T4, DYRK2; experiment: Coupled kinase assay, DYRK2; type: biochemical

Sequence of pY-Hck (P08631 166-445): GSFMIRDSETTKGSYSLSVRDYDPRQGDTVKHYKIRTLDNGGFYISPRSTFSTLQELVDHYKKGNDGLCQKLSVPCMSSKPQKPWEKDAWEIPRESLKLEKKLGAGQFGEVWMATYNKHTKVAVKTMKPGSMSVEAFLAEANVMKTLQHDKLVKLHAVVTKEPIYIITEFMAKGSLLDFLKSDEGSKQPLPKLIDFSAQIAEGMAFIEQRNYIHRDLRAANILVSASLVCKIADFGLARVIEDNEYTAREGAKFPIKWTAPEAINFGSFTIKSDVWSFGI

COc1cc(/C=C/C(=O)C(=Cc2ccc(N(CCCl)CCCl)cc2)C(=O)/C=C/c2ccc(O)c(OC)c2)ccc1O [Compound 4, (1E,6E)-4-(4-(bis(2-chloroethyl)amino)benzylidene)-1,7-bis(4-hydroxy-3-methoxyphenyl)hepta-1,6-diene-3,5-dione]
Ki (Src [1]): 460 ± 110 nM | Ki (Hck [2]): 70 ± 11 nM | Mode of inhibition (Hck [2]; Km for ATP changes, Vmax unchanged): competitive inhibitor for the ATP-binding site | Inhibition of phosphorylated Hck (pY-Hck) (pY-Hck): does not inhibit | Inhibition of phosphorylated Src (pY-Src) (pY-Src): does not inhibit | Inhibition of Abl Y253F kinase activity (Abl Y253F [3]): better inhibition compared with imatinib | Kd (Hck [4]): 50 ± 10 nM | Kd (Abl Y253F [5]): 1300 ± 300 nM | Interaction with DYRK2 (DYRK2 [6]): did not interact | Reduction of the rate of autophosphorylation (Hck [7]): 500 fold | Reduction of the rate of autophosphorylation (Src [8]): 2.5 fold | IC50 (MDA-MB-231): 1300 nM | IC10 dose (MDA-MB-231): 100 nM | IC50 (HEK 293T): 24900 ± 1000 nM | Time for which fluorescence was observed inside the cell (MDA-MB-231 cells [9]; observed for 14 h): 14 h | Time stable in solution by 1H NMR (Solution stability; 8:2 v/v of 1x PBS and DMSO-d6, 24 h observed period): at least 24 h | Stability in the kinase assay buffer (Solution stability; kinase assay buffer pH 8.0, 5% DMSO, 1 h): most stable | Aggregation in solution (oligomeric state, DLS) [10]: did not aggregate | Covalent modification of cysteine residues of Src kinase (Src kinase domain): not covalently modifying | Effect on plasma membrane integrity (MDA-MB-231 cells [11]): not affecting the membrane integrity | Effect on wound-healing rates (MDA-MB-231 cells [12]): significantly impaired the wound-healing rates | Cytosolic fraction of ERK1/2 after TNF-α activation (ERK1/2): significantly increased | BH3 interacting domain death agonist expression level [13]: does not affect | Mitochondria-mediated apoptotic pathway (Bcl-2, cytochrome C, Caspase3) [13]: activates the mitochondria-mediated apoptotic pathway | Ca^2+ release after LPS activation (RAW 264.7 cells): significant reduction | Cytosolic fraction of STAT3 after LPS activation (STAT3): increased cytosolic fraction of STAT3 | Phosphorylation of Src, ERK1/2, and STAT3 (Src, ERK1/2, and STAT3): concentration-dependent reduced phosphorylation | Autophosphorylation of Src in the cell (Src [14]): inhibits the autophosphorylation of Src | DNA cross-linking (pUC19 plasmid DNA): do not cross-link DNA

COc1cc(/C=C/C(=O)CC(=O)/C=C/c2ccc(O)c(OC)c2)ccc1O [Compound 1, Curcumin, reference compound]
Ki (DYRK2 [15]): 6 nM | IC50 (MDA-MB-231): 13000 nM | IC10 dose (MDA-MB-231): 600 nM | Time to degradation inside the cell (MDA-MB-231 cells [9]; fluorescence): ≤ 1 h

Source: article PMC7946438 (The Journal of Biological Chemistry, 2021)
